Measurements reported in ChEMBL document CHEMBL1201862, “PubChem BioAssay data set” (2004).
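Grown in 96-well plates, cells were treated for 48 hours with each compound at five concentrations. Insufficient inhibition: endpoint recorded as highest concentration tested. GI50: concentration for 50% inhibition of growth.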 Calls of active or inactive are those of the source. Rule as the data show it: active = GI50 up to about 1.1 µM and inactive = higher.

Columns and labels:
Experiment in all cases: NCI anticancer screen, dose series, 48 h
A549 = test system: A549
HCT-116 = test system: HCT-116
HCT-15 = test system: HCT-15
Hs-578T = test system: Hs-578T
IGROV-1 = test system: IGROV-1
K562 = test system: K562
KM12 = test system: KM12
MCF7 = test system: MCF7
MDA-N = test system: MDA-N
MOLT-4 = test system: MOLT-4
NCI-H226 = test system: NCI-H226
SF-295 = test system: SF-295
SK-MEL-28 = test system: SK-MEL-28
SK-MEL-5 = test system: SK-MEL-5
SNB-19 = test system: SNB-19
SW-620 = test system: SW-620
UO-31 = test system: UO-31
BT-549 = test system: BT-549
OVCAR-4 = test system: OVCAR-4

Measured: GI50

COC(=O)C1CCC(=O)N1C(c1ccc(OC)cc1)c1cc(OC)c(OC)c(OC)c1 (stereo not drawn)
inactive: SK-MEL-28 > 100 µM | UO-31 1.19 µM
0.381 µM: HCT-15
active: A549 0.449 µM | HCT-116 0.324 µM | Hs-578T 0.184 µM | IGROV-1 0.274 µM | K562 0.256 µM | KM12 0.146 µM | MCF7 0.307 µM | MDA-N 0.104 µM | MOLT-4 0.39 µM | NCI-H226 0.324 µM | SF-295 0.0762 µM | SK-MEL-5 0.252 µM | SNB-19 0.531 µM | SW-620 0.384 µM

COc1ccc(Cn2c3c(cc(OS(=O)(=O)C(F)(F)F)c2=O)Cc2ccccc2-3)cc1
inactive: A549 16.5 µM | BT-549 24.9 µM | HCT-116 14.9 µM | Hs-578T > 50 µM | IGROV-1 22.5 µM | K562 21.5 µM | KM12 26.4 µM | MDA-N 12.9 µM | MOLT-4 12 µM | NCI-H226 26.7 µM | OVCAR-4 19.3 µM | SF-295 18.9 µM | SK-MEL-28 18.7 µM | SK-MEL-5 10.4 µM | SNB-19 19.1 µM | SW-620 10.3 µM | UO-31 7.33 µM
3.22 µM: HCT-15

COc1ccc(NC(=S)NN=C(C)c2cccc(C(C)=NNC(=S)Nc3ccc(OC)cc3)n2)cc1
active: IGROV-1 0.857 µM | SK-MEL-5 0.995 µM
inactive: A549 23.7 µM | HCT-116 11.6 µM | Hs-578T > 100 µM | K562 31.3 µM | KM12 6.44 µM | MOLT-4 8.55 µM | NCI-H226 47.9 µM | OVCAR-4 7.13 µM | SF-295 11.2 µM | SK-MEL-28 > 100 µM | SNB-19 > 100 µM | SW-620 64.7 µM | UO-31 6.65 µM
10.9 µM: HCT-15

CN(c1ccccc1)S(=O)(=O)c1ccc([N+](=O)[O-])cc1
inactive: A549 > 100 µM | BT-549 > 100 µM | HCT-116 > 100 µM | KM12 46.5 µM | MCF7 > 100 µM | MDA-N > 100 µM | NCI-H226 > 100 µM | OVCAR-4 > 100 µM | SF-295 > 100 µM | SK-MEL-28 > 100 µM | SNB-19 > 100 µM | SW-620 > 100 µM | UO-31 > 100 µM
> 100 µM: HCT-15

CC(=O)CC(C)(C)NC(=O)[C@@]1(O)CC[C@H]2[C@@H]3CCC4=CC(=O)CC[C@@H]4[C@H]3CC[C@@]21C
inactive: A549 > 100 µM | BT-549 > 100 µM | HCT-116 > 100 µM | Hs-578T > 100 µM | IGROV-1 > 100 µM | K562 > 100 µM | KM12 > 100 µM | MDA-N > 100 µM | MOLT-4 56.4 µM | NCI-H226 > 100 µM | OVCAR-4 > 100 µM | SF-295 > 100 µM | SK-MEL-28 > 100 µM | SK-MEL-5 72.8 µM | SNB-19 > 100 µM | SW-620 > 100 µM | UO-31 > 100 µM
> 100 µM: HCT-15

COC(=O)C(C(=O)C(=O)Nc1ccc(OC)cc1[N+](=O)[O-])c1nc2cc(C)c(C)cc2nc1O (stereo not drawn)
> 100 µM: HCT-15
inactive: A549 > 100 µM | HCT-116 > 100 µM | IGROV-1 > 100 µM | K562 31.6 µM | NCI-H226 > 100 µM | OVCAR-4 > 100 µM | SF-295 > 100 µM | SK-MEL-28 > 100 µM | SK-MEL-5 > 100 µM | SNB-19 > 100 µM | SW-620 > 100 µM | UO-31 > 100 µM

CCN(CC)c1c(-c2c(N(CC)CC)c(OC(C)=O)c3sccn3c2=O)c(=O)n2ccsc2c1OC(C)=O
> 100 µM: HCT-15
inactive: BT-549 32 µM | HCT-116 71 µM | Hs-578T 38.8 µM | IGROV-1 68.1 µM | K562 > 100 µM | KM12 > 100 µM | MDA-N > 100 µM | MOLT-4 > 100 µM | NCI-H226 44.4 µM | OVCAR-4 > 100 µM | SF-295 32 µM | SK-MEL-28 > 100 µM | SK-MEL-5 > 100 µM | SNB-19 59.6 µM | SW-620 > 100 µM | UO-31 93.1 µM

COC(=O)[C@]12CSC[C@H]1C[C@H](c1ccccc1OC)N2
> 100 µM: HCT-15
inactive: A549 > 100 µM | BT-549 > 100 µM | HCT-116 > 100 µM | IGROV-1 85.9 µM | K562 > 100 µM | KM12 > 100 µM | MCF7 > 100 µM | MDA-N > 100 µM | MOLT-4 > 100 µM | NCI-H226 > 100 µM | OVCAR-4 > 100 µM | SF-295 > 100 µM | SK-MEL-28 > 100 µM | SK-MEL-5 > 100 µM | SNB-19 > 100 µM | SW-620 > 100 µM | UO-31 > 100 µM

OC(CN(CCCl)CCCl)C(O)C(O)C(O)CN(CCCl)CCCl (stereo not drawn)
inactive: A549 > 100 µM | BT-549 > 100 µM | HCT-116 > 100 µM | Hs-578T > 100 µM | IGROV-1 > 100 µM | K562 > 100 µM | KM12 > 100 µM | MCF7 29 µM | NCI-H226 > 100 µM | SK-MEL-28 > 100 µM | SK-MEL-5 > 100 µM | SNB-19 > 100 µM | SW-620 > 100 µM | UO-31 22.1 µM
> 100 µM: HCT-15

CC(=O)NC(C)(C)C1CC=C(C)/C(=N\O)C1 (stereo not drawn)
inactive: A549 > 100 µM | BT-549 > 100 µM | HCT-116 > 100 µM | IGROV-1 > 100 µM | K562 > 100 µM | KM12 > 100 µM | MCF7 > 100 µM | MDA-N > 100 µM | MOLT-4 > 100 µM | OVCAR-4 > 100 µM | SF-295 > 100 µM | SK-MEL-28 > 100 µM | SK-MEL-5 > 100 µM | SNB-19 > 100 µM | SW-620 > 100 µM | UO-31 > 100 µM
> 100 µM: HCT-15

CN(C)CCNc1c([N+](=O)[O-])sc2ccc(Cl)cc12
inactive: A549 11.9 µM | BT-549 32.3 µM | Hs-578T 21.3 µM | IGROV-1 26.1 µM | K562 7.52 µM | KM12 > 100 µM | MCF7 7.36 µM | MOLT-4 2.37 µM | NCI-H226 15.8 µM | OVCAR-4 12.6 µM | SF-295 17.6 µM | SK-MEL-28 > 100 µM | SK-MEL-5 26.2 µM | SNB-19 26.2 µM | SW-620 3.77 µM | UO-31 20 µM
7.76 µM: HCT-15

CCOC(=O)C(Cc1ccc2c(c1)CCC2)(Cc1ccc2c(c1)CCC2)C(=O)OCC
61.7 µM: HCT-15
inactive: A549 47.5 µM | HCT-116 31.7 µM | Hs-578T > 100 µM | IGROV-1 > 100 µM | K562 58.5 µM | MCF7 52.6 µM | MDA-N 46 µM | MOLT-4 23.6 µM | OVCAR-4 > 100 µM | SF-295 80.7 µM | SK-MEL-28 51.5 µM | SK-MEL-5 33.8 µM | SNB-19 > 100 µM | SW-620 > 100 µM | UO-31 71.9 µM

CCOC(=O)C(=CNC(=S)c1ccncc1)C(=O)OCC
> 100 µM: HCT-15
inactive: A549 > 100 µM | HCT-116 > 100 µM | Hs-578T > 100 µM | IGROV-1 > 100 µM | K562 > 100 µM | KM12 > 100 µM | MCF7 > 100 µM | MDA-N > 100 µM | MOLT-4 > 100 µM | OVCAR-4 > 100 µM | SF-295 > 100 µM | SK-MEL-28 > 100 µM | SK-MEL-5 > 100 µM | SNB-19 > 100 µM | SW-620 > 100 µM | UO-31 > 100 µM

CC1OC(OC2C(CO)OC(O[C@H]3CC[C@@]4(C)C(=CC[C@H]5[C@@H]6C[C@@H]7O[C@](O)(CC[C@@H](C)COC8OC(CO)C(O)C(O)C8O)[C@@H](C)[C@@H]7[C@@]6(C)CC[C@@H]54)C3)C(OC3OC(C)C(O)C(O)C3O)C2O)C(O)C(O)C1O (stereo partly drawn)
inactive: A549 1.57 µM | BT-549 3.88 µM | HCT-116 2.08 µM | Hs-578T 33.1 µM | K562 5.07 µM | KM12 2.24 µM | MDA-N 2.89 µM | MOLT-4 1.58 µM | OVCAR-4 6.73 µM | SF-295 3.91 µM | SK-MEL-28 2.46 µM | SK-MEL-5 4.21 µM | SNB-19 2.23 µM | SW-620 1.45 µM | UO-31 2.82 µM
1.89 µM: HCT-15

COc1cc(CC2c3cc(OC)c(OC)cc3CCN2C)ccc1O (stereo not drawn)
inactive: A549 > 100 µM | HCT-116 > 100 µM | K562 > 100 µM | KM12 > 100 µM | MOLT-4 > 100 µM | OVCAR-4 > 100 µM | SF-295 > 100 µM | SK-MEL-28 > 100 µM | SK-MEL-5 > 100 µM | SNB-19 > 100 µM | SW-620 > 100 µM | UO-31 > 100 µM
> 100 µM: HCT-15

COc1ccc(NC(=O)CC(=O)N2N=C(N(c3ccccc3)c3ccccc3)CC2c2ccccc2)cc1 (stereo not drawn)
inactive: A549 > 100 µM | HCT-116 > 100 µM | Hs-578T 98.4 µM | IGROV-1 > 100 µM | K562 > 100 µM | KM12 > 100 µM | MCF7 > 100 µM | MOLT-4 > 100 µM | NCI-H226 > 100 µM | OVCAR-4 > 100 µM | SF-295 > 100 µM | SK-MEL-28 > 100 µM | SNB-19 > 100 µM | SW-620 > 100 µM | UO-31 > 100 µM
> 100 µM: HCT-15

CC(=O)Nc1nnc(S(C)(=O)=O)s1
> 100 µM: HCT-15
inactive: A549 > 100 µM | BT-549 > 100 µM | HCT-116 > 100 µM | K562 > 100 µM | KM12 > 100 µM | MCF7 > 100 µM | MDA-N > 100 µM | MOLT-4 > 100 µM | NCI-H226 > 100 µM | SF-295 > 100 µM | SK-MEL-28 > 100 µM | SNB-19 > 100 µM | SW-620 > 100 µM | UO-31 > 100 µM
